Results: patent US20050002904A1, “Uses of vascular endothelial growth factor and type I collagen inducible protein (VCIP)” (priority 2003, published 2005)
Where no end group is shown, it is not given here.

Tests used:
endothelial cells = assay: Adhesion of endothelial cells to wells coated with GST fusion proteins; assay type: cell-based, human; conditions: pretreatment 20 μg/ml for 1 h and continued exposure
Description: FIG. 10A: Affinity purified GST-fusion proteins were resolved on SDS±PAGE and stained with Coomassie Blue. FIG. 10B: Integrins were immobilized onto 96-well plates, and various GST-fusion proteins (ligands) were allowed to bind. Bound ligands were incubated with anti-GST antibodies, appropriate substrate added and the color intensity measured. OD values <0.05 were considered to be background binding. Data are expressed as mean±SD (n=4). FIG. 10C: Dose-dependent binding of αvβ3 integrin with recombinant GST-VCIP-RGD. FIGS. 10D-F: Representative photomicrographs of adhesion and spreading of endothelial cells replated onto dishes coated with either fibronectin (FIG. 9D), vitronectin (FIG. 9E) or GST-VCIP-RGD (FIG. 9F). […] Attached cells were stained, washed and absorbances of eluted dyes measured. […] Attached cells were stained, washed and absorbances of eluted dyes determined. […] Data are expressed as mean±S.D.; diamond, P<0.01; asterisk, P<0.001. […]
For adhesion blocking assays, endothelial cells were detached, washed with PBS and resuspended in M199 media containing 1 mM CaCl2 and 1 mM MgCl2 in the absence of serum or growth factors. […] Absorbances were measured at 540 nm.
Next, the capacity of VCIP-RGD to bind endothelial cell integrins was evaluated by determining the effect of GST-VCIP fusion proteins on cell adhesion and spreading.

WT and MT HEK293 cells = assay: Cell aggregation assay, mixed dye-labelled WT and MT cells; assay type: cell-based; conditions: WT mixed with MT cells; 12 h
Description: FIGS. 9A-F show VCIP mediates heterophilic cell-cell interactions. Magnification, 200×. Bar, […]. *, P<0.05. The images of cell aggregates appear out of focus. FIG. 9A: Representative photomicrograph of a mixture of WT and MT cells labeled with red (Dil) and green (DiO) fluorescent dyes at 0 h. FIG. 9B: Small and large cell-aggregates were visible after 6 h; green arrowheads indicate the most productive cell aggregation (yellow). FIG. 9C: Representative large cell aggregates are shown after 12 h. FIG. 9D: Cells co-incubated with the GRGDSP peptide for 12 h. FIG. 9E: Cells co-incubated with anti-VCIP-RGD antibody (25 μg/ml) after 12 h. All experiments were performed at least three times in triplicates.
To monitor aggregation, cells were labeled with optimal non-toxic concentrations of fluorescent dyes. This assay was performed essentially according to the protocol described by Niessen and Gumbiner (2002), with minor modifications. […] The inhibitory effects of EDTA, peptides and antibodies on cell aggregation were determined at the end of 12 h. […] Experiments were performed at least three times with each time point analyzed in triplicate. Only productive cell aggregates (yellow) were counted. […] Numbers were expressed as the percentage of total aggregates counted. […]

[1] = system: SW480 cells on monolayer HUVECs; assay: Adhesion of SW480 cells to HUVEC monolayer; assay type: cell-based, human; conditions: pre-incubation; GRGDSP 10, 20 μM; antibody 20, 40 μg/ml; 1 hr
Description: FIGS. 7A-O show the effects of VCIP on adhesion of cadherin-deficient SW480 cells to HUVECs monolayer. SW480-C, SW480-WT, and SW480-MT cells were non-enzymatically detached from dishes, washed, passed through a cell strainer, counted, and labeled with a fluorescent dye (red) prior to experiments. HUVECs were seeded onto 12-well dishes in complete media and allowed to form a 100% confluent monolayer on the day of assay. Monolayer HUVECs were washed once each with PBS and HCMF, and then preincubated in HCMF supplemented with Ca^2+/Mg^2+ for 10 min at 37° C. SW480 cells (0.25×10^6) were finely resuspendend in 500 μl of HCMF buffer supplemented with Ca^2+/Mg^2+, layered onto the monolayer, and allowed to attach at 37° C. for 1 hr. Unattached cells were removed by washing with PBS and adherent cells were fixed with 4% paraformaldehyde. The number of cells adhered to the monolayer were determined using a phase-contrast microscope. Experiments were performed at least three times in triplicates, with three independent clones. […] In each experiment, the relative percentage of cell adhesion was calculated and presented as mean±SD. […] Data are expressed as mean±S.D. (n≧7), *P<0.05. […]

p120catenin = assay: Far-western assay with GST-PAP2b-cyto fusion protein; assay type: binding, human; conditions: 2 μg/ml fusion protein
Description: FIGS. 17A-H show interaction of PAP2b/VCIP with p120 catenin in endothelial cells. FIGS. 17A-B: Clarified cell lysates were prepared from endothelial cells infected with indicated PAP2b retroviral constructs A-E as shown in FIG. 14 and subjected to immunoprecipitation with: anti-HA (lanes 1, 2, 4, 5 and 6) or anti-p120 catenin (lane 3) and analyzed by immunoblotting with the indicated antibodies. FIGS. 17C-H: Far western analysis. Endothelial cells were solubilized in RIPA buffer, and immunoprecipitated using indicated antibodies (5 μg/1.5 mg protein). The membrane shown in FIG. 17C was incubated with 2 μg/ml of Gst-PAP2b-cyto fusion protein for 1 hour, washed with 1×TBS+tween (0.1%) and analyzed by immunoblotting with anti-Gst monoclonal antibodies (2 μg/ml). Individual lanes from the blot was excised and probed with: anti-VE-cadherin (FIG. 17D), anti-p120ctn (FIG. 17E), anti-β-catenin (FIG. 17F), anti-γ-catenin (FIG. 17G), and β1-integrin (FIG. 17H) monoclonal antibodies. […]
To further substantiate that the C-terminal cytoplasmic domain of PAP2b was indeed the region involved in the interaction, far-western assay (Wary et al., 1996) was performed using recombinant affinity purified GST-PAP2b-cyto fusion protein as follows. […] After rinsing with TBS, pH 7.5, the membrane was incubated with anti-Gst mouse monoclonal antibodies and detected as previously described (Schor et al., 1996). […]

## C[C@@H]1C[C@@H]([C@H](O)CC2CC(=O)NC(=O)C2)C(=O)[C@@H](C)C1 [cycloheximide, reference compound]
Endothelial cells
  total number of attached cells: did not decrease the total number of attached cells

## GRADSP [control peptide]
WT and MT HEK293 cells
  inhibition of cell aggregation: did not

## GRGDSP (CHAIN a peptide containing RGD sequence)
WT and MT HEK293 cells
  inhibition of cell aggregation: dose-dependently inhibited cell aggregation
[1]
  blocking of adhesion of pLNCX2-VCIP-RGD SW480 cells to monolayer HUVECs: blocked

## GST-PAP2b-c-cyto: recombinant affinity purified GST fusion of the C-terminal cytoplasmic domain of PAP2b (LSLPAPAIRKEILSPVDIIDRNNHHNMM; also: GST fusion)
p120catenin
  interaction with p120catenin: sufficient to interact with p120catenin
  reaction with VE cadherin, β- and γ-catenin, or β1-integrin polypeptides: did not react
